Experimental data: US20150141381A1, “TETRACYCLINE COMPOUNDS HAVING TARGET THERAPEUTIC ACTIVITIES” (Paratek Pharmaceuticals, Inc., priority 2001, published 2015)
Like-named read-outs stand apart in the source and are kept apart here.

What was measured:
S. aureus RN450 = experiment: In Vitro Anti-Bacterial Activity Assay (MIC), gram positive; assay type: cell-based; details: Staphylococcus aureus, RN450, 18 h
E. coli mL308 225 = experiment: In Vitro Anti-Bacterial Activity Assay (MIC), gram negative; assay type: cell-based; details: Escherichia coli, ML308225, 18 h
[1] = MIC class, Table 3 (Continued), read-out: Gram+ activity
[2] = MIC class, Table 3 (Continued), read-out: Gram− activity
[3] = gram positive bacteria, read-out: Antibiotic Activity Gram + (MIC)
[4] = gram negative bacteria, read-out: Antibiotic Activity Gram − (MIC)

Structure (SMILES)	MIC (S. aureus RN450; [1]) [µg/mL]	MIC (E. coli mL308 225; [2]) [µg/mL]	MIC (S. aureus RN450; [3]) [µg/mL]	MIC (E. coli mL308 225; [4]) [µg/mL]
CN(C)[C@@H]1C(O)=C(C(N)=O)C(=O)[C@@]2(O)C(O)=C3C(=O)c4c(O)ccc(C#Cc5ccc(N(O)O)cc5)c4C[C@H]3C[C@@H]12	< 4	< 4	–	–
Cc1ccc(CCc2ccc(O)c3c2C[C@H]2C[C@H]4[C@H](N(C)C)C(O)=C(C(N)=O)C(=O)[C@@]4(O)C(O)=C2C3=O)cc1	< 4	< 4	–	–
CC(=O)c1ccc(-c2ccc(O)c3c2C[C@H]2C[C@H]4[C@H](N(C)C)C(O)=C(C(N)=O)C(=O)[C@@]4(O)C(O)=C2C3=O)cc1	< 4	< 4	–	–
CCOC(=O)c1cccc(-c2ccc(O)c3c2C[C@H]2C[C@H]4[C@H](N(C)C)C(O)=C(C(N)=O)C(=O)[C@@]4(O)C(O)=C2C3=O)c1	< 4	< 4	–	–
CN(C)[C@@H]1C(O)=C(C(N)=O)C(=O)[C@@]2(O)C(O)=C3C(=O)c4c(O)ccc(-c5ccc(Cl)o5)c4C[C@H]3C[C@@H]12	< 4	< 4	–	–
CN(C)[C@@H]1C(O)=C(C(N)=O)C(=O)[C@@]2(O)C(O)=C3C(=O)c4c(O)ccc(/C=C/c5ccccc5)c4C[C@H]3C[C@@H]12	< 4	< 4	–	–
CCOCc1cccc(-c2ccc(O)c3c2C[C@H]2C[C@H]4[C@H](N(C)C)C(O)=C(C(N)=O)C(=O)[C@@]4(O)C(O)=C2C3=O)c1	< 4	< 4	–	–
COc1ccc(C#Cc2ccc(O)c3c2C[C@H]2C[C@H]4[C@H](N(C)C)C(O)=C(C(N)=O)C(=O)[C@@]4(O)C(O)=C2C3=O)cc1	< 4	< 4	–	–
CN(C)[C@@H]1C(O)=C(C(N)=O)C(=O)[C@@]2(O)C(O)=C3C(=O)c4c(O)ccc(C#CC5(O)CCCCC5)c4C[C@H]3C[C@@H]12	< 4	< 4	–	–
CN(C)CC#Cc1cc(N(C)C)c2c(c1O)C(=O)C1=C(O)[C@]3(O)C(=O)C(C(N)=O)=C(O)[C@@H](N(C)C)[C@@H]3C[C@@H]1C2	> 4	> 4	–	–
COc1ccc(OC)c(-c2ccc(O)c3c2C[C@H]2C[C@H]4[C@H](N(C)C)C(O)=C(C(N)=O)C(=O)[C@@]4(O)C(O)=C2C3=O)c1	< 4	< 4	–	–
CCc1ccc(O)c2c1C[C@H]1C[C@H]3[C@H](N(C)C)C(O)=C(C(N)=O)C(=O)[C@@]3(O)C(O)=C1C2=O	< 4	< 4	–	–
CN(C)[C@@H]1C(O)=C(C(N)=O)C(=O)[C@@]2(O)C(O)=C3C(=O)c4c(O)ccc(/C=C(\Cl)CO)c4C[C@H]3C[C@@H]12	< 4	> 4	–	–
CN(C)[C@@H]1C(O)=C(C(N)=O)C(=O)[C@@]2(O)C(O)=C3C(=O)c4c(O)ccc(C#CC5=CCCCC5)c4C[C@H]3C[C@@H]12	< 4	< 4	–	–
CN(C)[C@@H]1C(O)=C(C(N)=O)C(=O)[C@@]2(O)C(O)=C3C(=O)c4c(O)ccc(CC(Cl)C5=CCCCC5)c4C[C@H]3C[C@@H]12 (stereo partly drawn)	< 4	< 4	–	–
Cc1cc(C)cc(/C=C2\c3cccc(O)c3C(=O)C3=C(O)[C@]4(O)C(=O)C(C(N)=O)=C(O)[C@@H](N(C)C)[C@@H]4[C@@H](O)[C@@H]32)c1	< 4	< 4	–	–
Cc1ccc(C#Cc2ccc(O)c3c2C[C@H]2C[C@H]4[C@H](N(C)C)C(O)=C(C(N)=O)C(=O)[C@@]4(O)C(O)=C2C3=O)cc1	< 4	< 4	–	–
Cc1ccc(-c2ccc(O)c3c2C[C@H]2C[C@H]4[C@H](N(C)C)C(O)=C(C(N)=O)C(=O)[C@@]4(O)C(O)=C2C3=O)s1	< 4	< 4	–	–

Structure (SMILES)	MIC (S. aureus RN450; [1]) [µg/mL]	MIC (E. coli mL308 225; [2]) [µg/mL]	MIC (S. aureus RN450; [3]) [µg/mL]	MIC (E. coli mL308 225; [4]) [µg/mL]
COc1ccc(Cl)cc1-c1ccc(O)c2c1C[C@H]1C[C@H]3[C@H](N(C)C)C(O)=C(C(N)=O)C(=O)[C@@]3(O)C(O)=C1C2=O	< 4	< 4	–	–
CN(C)[C@@H]1C(O)=C(C(N)=O)C(=O)[C@@]2(O)C(O)=C3C(=O)c4c(O)ccc(-c5ccc(C#N)cc5)c4C[C@H]3C[C@@H]12	< 4	< 4	–	–
CN(C)[C@@H]1C(O)=C(C(N)=O)C(=O)[C@@]2(O)C(O)=C3C(=O)c4c(O)ccc(-c5ccccc5Cl)c4C[C@H]3C[C@@H]12	< 4	< 4	–	–
Cc1csc(-c2ccc(O)c3c2C[C@H]2C[C@H]4[C@H](N(C)C)C(O)=C(C(N)=O)C(=O)[C@@]4(O)C(O)=C2C3=O)c1	< 4	< 4	–	–
CN(C)[C@@H]1C(O)=C(C(N)=O)C(=O)[C@@]2(O)C(O)=C3C(=O)c4c(O)ccc(-c5ccco5)c4C[C@H]3C[C@@H]12	< 4	< 4	–	–
CN(C)[C@@H]1C(O)=C(C(N)=O)C(=O)[C@@]2(O)C(O)=C3C(=O)c4c(O)ccc(C#Cc5cccnc5)c4C[C@H]3C[C@@H]12	< 4	< 4	–	–
CN(C)[C@@H]1C(O)=C(C(N)=O)C(=O)[C@@]2(O)C(O)=C3C(=O)c4c(O)ccc(C#Cc5ccccc5F)c4C[C@H]3C[C@@H]12	< 4	< 4	–	–
COc1ccc(CCc2ccc(O)c3c2C[C@H]2C[C@H]4[C@H](N(C)C)C(O)=C(C(N)=O)C(=O)[C@@]4(O)C(O)=C2C3=O)cc1	< 4	< 4	–	–
COc1cccc(C#Cc2ccc(O)c3c2C[C@H]2C[C@H]4[C@H](N(C)C)C(O)=C(C(N)=O)C(=O)[C@@]4(O)C(O)=C2C3=O)c1	< 4	< 4	–	–
CCC(CC)c1ccc(CCc2ccc(O)c3c2C[C@H]2C[C@H]4[C@H](N(C)C)C(O)=C(C(N)=O)C(=O)[C@@]4(O)C(O)=C2C3=O)cc1	< 4	< 4	–	–
CN(C)[C@@H]1C(O)=C(C(N)=O)C(=O)[C@@]2(O)C(O)=C3C(=O)c4c(O)ccc(C#CCc5ccccc5)c4C[C@H]3C[C@@H]12	< 4	< 4	–	–
CN(C)[C@@H]1C(O)=C(C(N)=O)C(=O)[C@@]2(O)C(O)=C3C(=O)c4c(O)ccc(/C=C/S(C)(C)C)c4C[C@H]3C[C@@H]12	< 4	< 4	–	–
CC#Cc1ccc(O)c2c1C[C@H]1C[C@H]3[C@H](N(C)C)C(O)=C(C(N)=O)C(=O)[C@@]3(O)C(O)=C1C2=O	< 4	< 4	–	–
Cc1cc(C)cc(-c2cc(N(C)C)c3c(c2O)C(=O)C2=C(O)[C@]4(O)C(=O)C(C(N)=O)=C(O)[C@@H](N(C)C)[C@@H]4C[C@@H]2C3)c1	< 4	< 4	–	–
Cc1ccsc1/C=C/c1ccc(O)c2c1C[C@H]1C[C@H]3[C@H](N(C)C)C(O)=C(C(N)=O)C(=O)[C@@]3(O)C(O)=C1C2=O	< 4	< 4	–	–
COc1ccc(/C=C/c2ccc(O)c3c2C[C@H]2C[C@H]4[C@H](N(C)C)C(O)=C(C(N)=O)C(=O)[C@@]4(O)C(O)=C2C3=O)cc1OC	< 4	< 4	–	–
C[C@H]1c2ccc(N(C)C3CCN(C)CC3)c(O)c2C(=O)C2=C(O)[C@]3(O)C(=O)C(C(N)=O)=C(O)[C@@H](N(C)C)[C@@H]3[C@@H](O)[C@@H]21	–	–	> 4	> 4
CN(C)[C@@H]1C(O)=C(C(N)=O)C(=O)[C@@]2(O)C(O)=C3C(=O)c4c(ccc(NC5CCN(Cc6ccccc6)CC5)c4O)C[C@H]3C[C@@H]12	–	–	> 4	> 4
